# Laboratory results reported in patent US11077126B2 (priority 2017, dated 2021).
# Legend:
# [1] = system: transplanted tumor of human gastric adenocarcinoma SGC7901 cells; test: Human gastric adenocarcinoma in nude mice model; conditions: 30 mg/kg
# Procedure: (§1) Then cell concentration was adjusted to 1×10^7/ml with matrigel, and then each nude mouse was inoculated subcutaneously with 0.2 ml of cells at its right armpit and recorded as the first day of inoculation. […] Each group was continuously administered intragastrically for 30 days with a dose of 20 ml/kg. The mice were sacrificed the next day after drug withdrawal and the indicators were tested. The long diameter and short diameter of the tumor, and the body weight of each mouse were recorded every 3 days from drug administration to nude mouse sacrifice.
# (§2) The body weight of the nude mice and the long diameter (a) and short diameter (b) of the transplanted tumor were measured every 3 days, and the tumor volume (v), relative tumor volume (RTV) and relative tumor proliferation rate (T/C) are calculated respectively according to the following formulas, wherein V=a×b^2/2; RTV=V/V0 (V0 is the tumor volume before administration, V is the tumor volume before sacrifice), and T/C (%)=treatment group RTV/model control group RTV×100%.
# (§3) Each mouse was weighed and sacrificed. After the tumor was completely stripped off from the body of the mouse, the non-tumor tissues such as blood stains and fat were removed to weigh the tumor and calculate the tumor growth inhibition rate. The average tumor weight of each group of mice is used as an indicator of efficacy. Tumor growth inhibition rate (%)=(1−the average tumor weight of the treatment group/the average tumor weight of the model group)×100%.
# [2] = system: transplanted tumor of human renal cell adenocarcinoma 769-P cells; test: Human renal cell adenocarcinoma in nude mice model; conditions: 769-P nude mice; 30 mg/kg i.g. 30 d
# Procedure: as §1, with “of” for “of the”
# as §2, §3
# [3] = system: transplanted tumor of human breast cancer MDA-MB-231 cells; test: Human breast cancer (MDA-MB-231) in nude mice model; conditions: MDA-MB-231 nude mice; 30 mg/kg i.g. 30 d
# Procedure: as §1, §2, §3
# [4] = system: transplanted tumor of human non-small cell lung cancer A549 cells; test: Human non-small cell lung cancer in nude mice model; conditions: 30 mg/kg i.g. 30 d
# Procedure: as §1, with “A549 cells in a logarithmic growth phase were taken and subjected to a trypan blue exclusion experiment showing that the cell viability was more than 95%, then the cells were subjected to trypsinization, centrifugation, and supernatant removal. Then” for “Then”, “matrigel,” for “matrigel, and”, “inoculation. When the tumor growed to be greater than or equal to 100 mm^3, the mice were randomly divided into 5 groups with 6 mice in each group.” for “inoculation.”
# as §2, §3
# [5] = system: transplanted tumor of human cervical cancer HeLa cells; test: Human cervical cancer in nude mice model; conditions: 30 mg/kg i.g. 30 d
# Procedure: as §1, with “Then the cells were subjected to trypsinization, centrifugation, and supernatant removal. Then” for “Then”, “matrigel,” for “matrigel, and”
# as §2
# as §3, with “Calculation of Tumor Growth Inhibition Rate Each” for “Each”
# [6] = system: transplanted tumor of human glioblastoma A172 cells; test: Human glioblastoma in nude mice model; conditions: 30 mg/kg i.g. 30 d
# Procedure: as §1, with “matrigel,” for “matrigel, and”
# as §2, §3
# [7] = system: spleen of A549 lung cancer tumor-bearing mice; format: in vivo
# Procedure: (§4) After the tumor-bearing mice are sacrificed, the spleen and thymus are weighed, and the spleen index and thymus index are calculated.
# [8] = system: thymus and spleen of H22 liver cancer tumor-bearing mice; format: in vivo
# Procedure: as §4
# [9] = H22 tumor-bearing mice, cyclophosphamide, P<0.01
smiles,measurement,setting,value
O=P1(N(CCCl)CCCl)NCCCO1 (centres unmarked) [Cyclophosphamide],Relative Tumor Proliferation Rate(T/C),[1],48.83%
same,Relative Tumor Volume (RTV),[1],7.86 ± 3.23
same,Tumor Weight,[1],0.71 ± 0.08 g
same,Inhibition Rate (%),[1]; by tumor weight,70.97%
same,Body Weight (g)(d1),[1]; d1,21.80 ± 1.96 g
same,Tumor Volume (mm3) (d1),[1]; d1,102.45 ± 9.52 mm3
same,Body Weight (g)(d30),[1]; d30,20.25 ± 1.57 g
same,Tumor Volume (mm3) (d30),[1]; d30,799.74 ± 82.25 mm3
same,Body Weight (g)(d1),[2],22.48 ± 0.91 g
same,Body Weight (g)(d30),[2],21.28 ± 0.39 g
same,Inhibition Rate (%),[2],76.09%
same,Relative Tumor Proliferation Rate(T/C),[2],19.68%
same,Relative Tumor Volume (RTV),[2],4.19 ± 1.29
same,Tumor Volume (mm3) (d1),[2],178.48 ± 28.78 mm3
same,Tumor Volume (mm3) (d30),[2],747.83 ± 138.57 mm3
same,Tumor Weight,[2],0.61 ± 0.15 g
same,Body Weight (g)(d1),[3],21.28 ± 0.95 g
same,Body Weight (g)(d30),[3],19.79 ± 1.03 g
same,Inhibition Rate (%),[3],79.75%
same,Relative Tumor Proliferation Rate(T/C),[3],28.59%
same,Relative Tumor Volume (RTV),[3],3.46 ± 0.70
same,Tumor Volume (mm3) (d1),[3],169.73 ± 11.79 mm3
same,Tumor Volume (mm3) (d30),[3],587.27 ± 30.47 mm3
same,Tumor Weight,[3],0.27 ± 0.11 g
same,Body Weight (g)(d1),[4],20.89 ± 0.91 g
same,Body Weight (g)(d30),[4],18.97 ± 0.82 g
same,Inhibition Rate (%),[4],81.25%
same,Relative Tumor Proliferation Rate(T/C),[4],23.28%
same,Relative Tumor Volume (RTV),[4],3.97 ± 0.68
same,Tumor Volume (mm3) (d1),[4],127.26 ± 15.21 mm3
same,Tumor Volume (mm3) (d30),[4],504.75 ± 143.63 mm3
same,Tumor Weight,[4],0.21 ± 0.11 g
same,Body Weight (g)(d1),[5],20.04 ± 0.68 g
same,Body Weight (g)(d30),[5],19.20 ± 0.18 g
same,Inhibition Rate (%),[5],72.48%
same,Relative Tumor Proliferation Rate(T/C),[5],24.35%
same,Relative Tumor Volume (RTV),[5],3.44 ± 0.93
same,Tumor Volume (mm3) (d30),[5],397.88 ± 103.60 mm3
same,Tumor Weight,[5],0.49 ± 0.39 g
same,Body Weight (g)(d1),[6],22.89 ± 1.22 g
same,Body Weight (g)(d30),[6],19.27 ± 1.49 g
same,Inhibition Rate (%),[6],68.68%
same,Relative Tumor Proliferation Rate(T/C),[6],75.42%
same,Relative Tumor Volume (RTV),[6],11.78 ± 3.25
same,Tumor Volume (mm3) (d1),[6],122.41 ± 14.06 mm3
same,Tumor Volume (mm3) (d30),[6],1430.80 ± 134.31 mm3
same,Tumor Weight,[6],0.85 ± 0.18 g
same,Spleen Index (%),"[7]; 26 mg/kg, positive drug group, n = 6",0.20 ± 0.03 %
same,spleen index compared with the control group,"[7]; A549 lung cancer tumor-bearing mice, cyclophosphamide, P<0.01",significantly lower
same,Spleen Index (%),"[8]; 26 mg/kg, positive drug group",0.38 ± 0.09 %
same,Thymus Index (%),"[8]; 26 mg/kg, positive drug group",0.04 ± 0.02 %
same,spleen index compared with the control group,[8]; [9],significantly lower
same,thymus index compared with the control group,[8]; [9],significantly lower
